Assays:
[1] = test system: cytokinin-dependent tobacco callus; assay: Tobacco callus biotest (stimulation of plant cell division); assay type: cell-based, Nicotiana tabacum L. cv. Wisconsin 38; conditions: callus growth at concentration with highest activity; 10^−5 M BAP = 100%
Experimental: Stimulation effect of the cytokinin mesylates was tested in tobacco callus biotest using cytokinin dependent tobacco callus. Cytokinin-dependent tobacco callus Nicotiana tabacum L. cv. […] Subcultivation was carried out every three weeks. Fourteen days before the bioassay, the callus tissue was transferred to the media without BAP. Biological activity was determined from the increase in fresh callus weight after four weeks of cultivation. Five replicates were prepared for each cytokinin concentration and the entire test was repeated twice. […] Relative activity of the compound at this concentration was calculated (Tab. 15). The activity obtained for 10^−5 M 6-benzylaminopurine (BAP) was postulated as 100%. The cytokinin bases to be tested were dissolved in dimethylsulfoxide (DMSO) and the solution brought up to 10^−3 M with distilled water. The mesylate salts were dissolved directly in distilled water.

HOS (human osteosarcoma) = assay: In vitro cytotoxicity, Calcein AM assay, HOS; assay type: cell-based; conditions: Homo sapiens, 72 h, 3-day Calcein-AM assay
Description: (§1) Because toxic compounds adversely affect cell metabolic processes, many standard cytotoxicity assays are based on measuring the rate of metabolism of various artificial substrates. The resulting product is then quantified, for example, by spectrometry. Assays can be easily modified for use in 96-well plates, A microtiter assay based on the quantification of Calcein AM metabolism was used to evaluate the cytotoxicity of cytokinins, for example meta-topolin, ortho-topolin, kinetin, BAP or its mesylate salts, but also a number of other cytokinin mesylate derivatives according to the invention. The test is widely used in drug screening programs and in chemosensitivity testing. In living cells, Calcein AM is enzymatically hydrolyzed and the accumulation of the resulting calcein is manifested by green fluorescence. […] These cells were maintained in standard DMEM or RPMI medium (Sigma, MO, USA) supplemented with heat-inactivated fetal bovine serum (10%) with 2 mM L-glutamine and penicillin-streptomycin (1%) under standard cell culture conditions (37° C., 5% CO2 in a humid environment) and subcultured two or three times a week using a standard trypsinization procedure. Approximately 10,000 cells in 80 μl of medium were seeded in a 96-well microtiter plate. After 12 hours of incubation, the compounds to be tested were added in 20 μl aliquots. Control cultures were treated with DMSO alone. […] After 72 hours of incubation, Calcein AM solution (Molecular Probes) was added to a final concentration of 1 μg/ml and the cells were incubated for another hour.
(§2) Cytoxicity of compounds was tested on panel of cell lines of different histogenetic and species origin.

[2] = test system: G361 (malignant melanoma); assay: In vitro cytotoxicity, Calcein AM assay, G-361; assay type: cell-based; conditions: Homo sapiens, 72 h, 3-day Calcein-AM assay
Description: (§3) Because toxic compounds adversely affect cell metabolic processes, many standard cytotoxicity assays are based on measuring the rate of metabolism of various artificial substrates. The resulting product is then quantified, for example, by spectrometry. Assays can be easily modified for use in 96-well plates, A microtiter assay based on the quantification of Calcein AM metabolism was used to evaluate the cytotoxicity of cytokinins, for example meta-topolin, ortho-topolin, kinetin, BAP or its mesylate salts, but also a number of other cytokinin mesylate derivatives according to the invention. The test is widely used in drug screening programs and in chemosensitivity testing. In living cells, Calcein AM is enzymatically hydrolyzed and the accumulation of the resulting calcein is manifested by green fluorescence. The following cell lines—RPMI 8226 (multiple myeloma), CEM (T-lymphoblastic leukemia), K562 (chronic myeloid leukemia), HL-60 (promyelocytic, leukemia), MCF-7 (breast adenocarcinoma), HeLa (cervical cancer), G361 (malignant melanoma), HOS (human osteosarcoma) and BJ (human foreskin fibroblasts)—were obtained from the American Type Culture Collection (Manassas, VA, USA). These cells were maintained in standard DMEM or RPMI medium (Sigma, MO, USA) supplemented with heat-inactivated fetal bovine serum (10%) with 2 mM L-glutamine and penicillin-streptomycin (1%) under standard cell culture conditions (37° C., 5% CO2 in a humid environment) and subcultured two or three times a week using a standard trypsinization procedure. Approximately 10,000 cells in 80 μl of medium were seeded in a 96-well microtiter plate. After 12 hours of incubation, the compounds to be tested were added in 20 μl aliquots. Control cultures were treated with DMSO alone. […] Serial, 3-fold dilutions (six in total, peak concentrations in 166 μM incubations) of each compound were tested. After 72 hours of incubation, Calcein AM solution (Molecular Probes) was added to a final concentration of 1 μg/ml and the cells were incubated for another hour. Free calcein fluorescence was then quantified using a Fluoroscan Ascent fluorometer (Microsystems), and the percentage of surviving cells in each well was calculated by dividing the OD obtained from each cell by the exposed cells by the mean OD obtained from control wells×100%, Finally, IC50 values (concentration causing a 50% decrease in cellular esterase activity) were calculated for each compound generated from dose-response curves (Krys̆tof et al., 2005, Bioorg. Med. Chem. Lett. 12, 3283-3286). The IC50 values reported here are averages obtained from at least three independent experiments, where the individual replication values fell within 20% of the average. Growth inhibition was calculated using the following equation: IC50=(mean FDwell exposed to drug−mean FDblank)/(mean FDcontrol well−mean FDblank)×100%.
as §2

[3] = test system: MCF-7 (breast adenocarcinoma); assay: In vitro cytotoxicity, Calcein AM assay, MCF7; assay type: cell-based; conditions: Homo sapiens, MCF7, 72 h, 3-day Calcein-AM assay
Description: as §1, §2

[4] = test system: HL-60 (promyelocytic, leukemia); assay: In vitro cytotoxicity, Calcein AM assay, HL60; assay type: cell-based; conditions: Homo sapiens, HL-60, 72 h, 3-day Calcein-AM assay
Description: as §1, §2

[5] = test system: K562 (chronic myeloid leukemia); assay: In vitro cytotoxicity, Calcein AM assay, K-562; assay type: cell-based; conditions: Homo sapiens, K562, 72 h, 3-day Calcein-AM assay
Description: as §1, §2

NIH-3T3 = assay: In vitro cytotoxicity, Calcein AM assay, NIH-3T3; assay type: cell-based; conditions: Mus musculus, NIH3T3, 72 h, 3-day Calcein-AM assay
Description: as §3, with “Growth inhibition was calculated using the following equation: IC50=(mean FDwell exposed to drug−mean FDblank)/(mean FDcontrol well−mean FDblank)×100%.” left out

[6] = test system: CEM (T-lymphoblastic leukemia); assay: In vitro cytotoxicity, Calcein AM assay, CEM; assay type: cell-based; conditions: 72 h, 3-day Calcein-AM assay
Description: as §1, §2

Structure (SMILES)	activity (%) [10^−5 mol · l^−1 BAP = 100%] [1] [%]	IC50 (HOS (human osteosarcoma)) [µM]	IC50 [2] [µM]	IC50 [3] [µM]	IC50 [4] [µM]	IC50 [5] [µM]	IC50 (NIH-3T3) [µM]	IC50 [6] [µM]
Clc1ccccc1CNc1ncnc2nc[nH]c12 [2ClBAP, 6-(2-chlorobenzylamino)purine]	93	84.9	56.6	164	110	101	> 167	58.4
Fc1ccccc1CNc1ncnc2nc[nH]c12 [2FBAP, 6-(2-fluorobenzylamino)purine]		> 167	106	> 167		136		98
Clc1cccc(CNc2ncnc3nc[nH]c23)c1 [3ClBAP, 6-(3-chlorobenzylamino)purine]	94	> 167	149	> 167	> 167			> 167
Fc1cccc(CNc2ncnc3nc[nH]c23)c1 [3FBAP, 6-(3-fluorobenzylamino)purine]		> 167	> 167	163	> 167	105		> 167
Fc1ccc(CNc2ncnc3nc[nH]c23)cc1 [4FBAP, 6-(4-fluorobenzylamino)purine]		> 167	> 167	> 167	59.2	> 167		66.4
COc1ccc(CNc2ncnc3nc[nH]c23)cc1 [4MeOBAP, 6-(4-methoxybenzylamino)purine]		> 167	≥ 167	> 167	> 167	> 167	> 167	> 167

From US12570657B2, “Mesylate salts of heterocyclic cytokinins, compositions containing these derivatives and use thereof” (UNIVERZITA PALACKEHO V OLOMOUCI, priority 2020, dated 2026)
